Data: ChEMBL document CHEMBL5352478, “Novel pyridine-containing histone deacetylase inhibitors strongly arrest proliferation, induce apoptosis and modulate miRNAs in cancer cells” (Eur J Med Chem, 2023)

Tests used:
K562 = experiment: cells; type: functional, cell-based; conditions: Homo sapiens, K562, 72 h
HCT-116 = experiment: cells; type: functional, cell-based; conditions: Homo sapiens, HCT-116, 72 h
U-937 = experiment: Induction of cell cycle arrest in human U-937 cells assessed as accumulation of cells in G1 phase at 5 uM for 48 hrs by PI staining based flow cytometric analysis; type: functional
A549 = experiment: cells; type: functional, cell-based; conditions: Homo sapiens, A549, 72 h

IC50 (K562): 570 nM | IC50 (HCT-116): 1060 nM | IC50 (A549): 2250 nM
Compound: Nc1ccccc1NC(=O)c1ccc(CNC(=O)OCc2cccnc2)cc1 [ENTINOSTAT]
Activity (U-937): 70%
